According to ChEMBL document CHEMBL5303573, “Mapping human microbiome drug metabolism by gut bacteria and their genes” (Nature, 2019):

Experiments:
[1] = The drug is tested on Eggerthella lenta strain: ATCC25559 for biotransformation. The drug concentrations were measured before and after a 12-h incubation by liquid-chromatography-coupled mass spectrometry (LC–MS); settings: 2 µM
[2] = The drug is tested on Bacteroides cellulosilyticus strain: DSM14838 for biotransformation. The drug concentrations were measured before and after a 12-h incubation by liquid-chromatography-coupled mass spectrometry (LC–MS); settings: 2 µM
[3] = The drug is tested on Bacteroides coprophilus strain: DSM18228 for biotransformation. The drug concentrations were measured before and after a 12-h incubation by liquid-chromatography-coupled mass spectrometry (LC–MS); settings: 2 µM
[4] = The drug is tested on Bacteroides dorei strain: DSM17855 for biotransformation. The drug concentrations were measured before and after a 12-h incubation by liquid-chromatography-coupled mass spectrometry (LC–MS); settings: phocaeicola dorei, 2 µM
[5] = The drug is tested on Bacteroides fragilis strain: ATCC43859 for biotransformation. The drug concentrations were measured before and after a 12-h incubation by liquid-chromatography-coupled mass spectrometry (LC–MS); settings: 2 µM
[6] = The drug is tested on Bacteroides ovatus strain: ATCC8483 for biotransformation. The drug concentrations were measured before and after a 12-h incubation by liquid-chromatography-coupled mass spectrometry (LC–MS); settings: 2 µM
[7] = The drug is tested on Bacteroides sp. WH2 strain: WH2 for biotransformation. The drug concentrations were measured before and after a 12-h incubation by liquid-chromatography-coupled mass spectrometry (LC–MS); settings: bacteroides sp. wh2, 12 h, 2 µM
[8] = The drug is tested on Bacteroides xylanisolvens strain: DSM18836 for biotransformation. The drug concentrations were measured before and after a 12-h incubation by liquid-chromatography-coupled mass spectrometry (LC–MS); settings: 2 µM
[9] = The drug is tested on Blautia luti strain: DSM14534 for biotransformation. The drug concentrations were measured before and after a 12-h incubation by liquid-chromatography-coupled mass spectrometry (LC–MS); type: ADME; set-up: dose 2 uM, timepoint 0 vs 12 hours; settings: 2 µM
[10] = The drug is tested on Clostridium symbiosum strain: ATCC14940 for biotransformation. The drug concentrations were measured before and after a 12-h incubation by liquid-chromatography-coupled mass spectrometry (LC–MS); settings: 2 µM
[11] = The drug is tested on Coprococcus comes strain: ATCC27758 for biotransformation. The drug concentrations were measured before and after a 12-h incubation by liquid-chromatography-coupled mass spectrometry (LC–MS); type: ADME; set-up: dose 2 uM, timepoint 0 vs 12 hours; settings: 2 µM
[12] = The drug is tested on Enterococcus faecalis strain: V583 for biotransformation. The drug concentrations were measured before and after a 12-h incubation by liquid-chromatography-coupled mass spectrometry (LC–MS); settings: 2 µM
[13] = The drug is tested on Eubacterium ventriosum strain: ATCC27560 for biotransformation. The drug concentrations were measured before and after a 12-h incubation by liquid-chromatography-coupled mass spectrometry (LC–MS); type: ADME; set-up: dose 2 uM, timepoint 0 vs 12 hours; settings: 2 µM
[14] = The drug is tested on Ruminococcus torques strain: ATCC27756 for biotransformation. The drug concentrations were measured before and after a 12-h incubation by liquid-chromatography-coupled mass spectrometry (LC–MS); type: ADME; set-up: dose 2 uM, timepoint 0 vs 12 hours; settings: 2 µM
[15] = The drug is tested on Edwardsiella tarda strain: ATCC23685 for biotransformation. The drug concentrations were measured before and after a 12-h incubation by liquid-chromatography-coupled mass spectrometry (LC–MS); settings: 2 µM
[16] = The drug is tested on Providencia rettgeri strain: DSM1131 for biotransformation. The drug concentrations were measured before and after a 12-h incubation by liquid-chromatography-coupled mass spectrometry (LC–MS); type: ADME; set-up: dose 2 uM, timepoint 0 vs 12 hours; settings: 2 µM
[17] = bacteroides eggerthii, 12 h, 2 µM
Description: The drug is tested on Bacteroides eggerthii strain: DSM20697 for biotransformation. The drug concentrations were measured before and after a 12-h incubation by liquid-chromatography-coupled mass spectrometry (LC–MS)

[18] = bacteroides thetaiotaomicron, 12 h, 2 µM
Description: The drug is tested on Bacteroides thetaiotaomicron strain: 7330 for biotransformation. The drug concentrations were measured before and after a 12-h incubation by liquid-chromatography-coupled mass spectrometry (LC–MS)

[19] = akkermansia muciniphila, 12 h, 2 µM
Description: The drug is tested on Akkermansia muciniphila strain: ATCC BAA-835 for biotransformation. The drug concentrations were measured before and after a 12-h incubation by liquid-chromatography-coupled mass spectrometry (LC–MS)

[20] = The drug is tested on Clostridium ramosum strain: DSM1402 for biotransformation. The drug concentrations were measured before and after a 12-h incubation by liquid-chromatography-coupled mass spectrometry (LC–MS); settings: thomasclavelia ramosa, 2 µM

Bacterial Biotransformation [1] | Bacterial Biotransformation [2] | Bacterial Biotransformation [3] | Bacterial Biotransformation [4] | Bacterial Biotransformation [5] | Bacterial Biotransformation [6] | Bacterial Biotransformation [7] | Bacterial Biotransformation [8] | Bacterial Biotransformation [9] | Bacterial Biotransformation [10] | Bacterial Biotransformation [11] | Bacterial Biotransformation [12] | Bacterial Biotransformation [13] | Bacterial Biotransformation [14] | Bacterial Biotransformation [15] | Bacterial Biotransformation [16] | Bacterial Biotransformation [17] | Bacterial Biotransformation [18] | Bacterial Biotransformation [19] | Bacterial Biotransformation [20] | SMILES
Compound metabolized | Compound metabolized | Compound metabolized | Compound metabolized | Compound metabolized | Compound metabolized | Compound metabolized | Compound metabolized | Compound metabolized | Compound metabolized | Compound metabolized | Compound NOT metabolized | Compound metabolized | Compound metabolized | Compound metabolized | Compound metabolized | Compound metabolized | Compound metabolized | Compound metabolized | – | CC(C)(Oc1ccc(CCNC(=O)c2ccc(Cl)cc2)cc1)C(=O)O [BEZAFIBRATE]
Compound metabolized | Compound metabolized | Compound metabolized | Compound metabolized | Compound metabolized | Compound metabolized | Compound metabolized | Compound metabolized | Compound metabolized | Compound metabolized | Compound metabolized | Compound metabolized | Compound metabolized | Compound metabolized | Compound metabolized | – | Compound metabolized | Compound metabolized | Compound metabolized | Compound metabolized | CCN(CC)C(=O)/C(C#N)=C/c1cc(O)c(O)c([N+](=O)[O-])c1 [ENTACAPONE]
Compound NOT metabolized | Compound metabolized | Compound metabolized | Compound metabolized | Compound metabolized | Compound NOT metabolized | Compound NOT metabolized | Compound metabolized | Compound NOT metabolized | Compound metabolized | Compound NOT metabolized | Compound NOT metabolized | Compound NOT metabolized | Compound NOT metabolized | Compound NOT metabolized | Compound NOT metabolized | Compound metabolized | Compound metabolized | Compound NOT metabolized | – | CCOc1cc(CC(=O)N[C@@H](CC(C)C)c2ccccc2N2CCCCC2)ccc1C(=O)O [REPAGLINIDE]
Compound NOT metabolized | Compound metabolized | Compound NOT metabolized | Compound metabolized | Compound NOT metabolized | Compound NOT metabolized | Compound NOT metabolized | Compound metabolized | Compound NOT metabolized | Compound NOT metabolized | Compound NOT metabolized | Compound NOT metabolized | Compound metabolized | Compound NOT metabolized | Compound metabolized | – | Compound metabolized | Compound NOT metabolized | Compound NOT metabolized | Compound metabolized | CN1CCN(CC/C=C2/c3ccccc3Sc3ccc(S(=O)(=O)N(C)C)cc32)CC1 [THIOTHIXENE]
